The values that follow come from publication PMC3728024, “Antidiabetic and Antioxidant Effects and Phytochemicals of Mulberry Fruit (Morus alba L.) Polyphenol Enhanced Extract” (PLoS ONE, 2013).

As a reminder, the EC50 is the concentration that produces a half-maximal response. High values mean a less potent agent, low ones a more potent agent. Usually IC50 stands for the point on the concentration scale where inhibition reaches its midpoint.

SMILES strings stand for the structures. Read-outs that look alike come from different tables or passages of the source.

The nature of experiment [1]: DPPH radical-scavenging assay of the isolated compounds. As to conditions: mean ± SD, n = 3. The procedure:
The DPPH radical-scavenging assay was performed according to a previously described method. All tests were performed in triplicate. Ascorbic acid and gallic acid were used as positive controls.
Background: Loss of DPPH colour is used to gauge radical scavenging.

For experiment [2], the target named is T1, α-Glucosidase type I (EC 3.2.1.20) (Saccharomyces cerevisiae, UniProt P53341).
T1 construct: purchased Sigma-Aldrich Chemical Co. (St. Louis, MO)
T1 sequence (P53341 whole entry): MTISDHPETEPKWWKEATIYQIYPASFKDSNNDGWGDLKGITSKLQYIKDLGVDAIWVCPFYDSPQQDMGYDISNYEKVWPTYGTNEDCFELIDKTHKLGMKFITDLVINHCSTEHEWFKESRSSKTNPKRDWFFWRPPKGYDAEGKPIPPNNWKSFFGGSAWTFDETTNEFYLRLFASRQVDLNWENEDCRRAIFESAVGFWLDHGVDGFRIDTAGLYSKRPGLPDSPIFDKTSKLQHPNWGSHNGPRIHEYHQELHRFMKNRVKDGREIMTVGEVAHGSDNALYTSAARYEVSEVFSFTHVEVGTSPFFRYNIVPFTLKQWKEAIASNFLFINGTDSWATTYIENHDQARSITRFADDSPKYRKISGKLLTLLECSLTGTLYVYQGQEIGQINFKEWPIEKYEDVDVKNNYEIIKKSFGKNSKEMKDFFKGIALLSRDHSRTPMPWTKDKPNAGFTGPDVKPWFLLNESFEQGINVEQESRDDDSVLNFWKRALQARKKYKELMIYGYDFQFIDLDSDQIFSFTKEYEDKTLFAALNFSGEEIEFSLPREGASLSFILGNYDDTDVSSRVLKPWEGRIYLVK
Kind of experiment: biochemical. From the text:
α-Glucosidase type I (EC 3.2.1.20) from baker's yeast, p-nitrophenyl α-D-glucopyranoside (PNPG), streptozotocin (STZ), were purchased from Sigma-Aldrich Chemical Co. (St. Louis, MO). […] Phenazine methosulfate was purchased from J&K Chemical Ltd. (Shanghai, China). 2,2-Diphenyl-1-picrylhdrazyl (DPPH) was product of Aladdin Chemistry Co. Ltd. (Shanghai, China). Silica gel (200–300 mesh, Anhui Liangchen Silicon Material Co. Ltd. Anhui, China), Sephadex LH-20 (Pharmacia Biothech AB, Uppsala, Sweden), and ODS (40–60 μm, Merck KGaA, Darastadt, Germany) were used for column chromatography. HPLC-grade methanol was purchased from Jiangsu Hanbang Science and Technology Co. Ltd. (Nanjing, China). All other analytical chemicals and reagents were purchased from Sinopharm Chemical Regent Co. Ltd. (Shanghai, China).
The α-glucosidase inhibitory studies were performed spectrophotometrically on 96-well microplate reader according to a reported method. […] The assay was performed in triplicate.

Experiment [3] can be described thus: Superoxide anion radical-scavenging assay (NADH/PMS system). Conditions: isolated compounds; mean ± SD, n = 3. From the text: Superoxide radical were generated by the NADH/PMS system according to a reported protocol. Gallic acid was used as positive control.
Where [4] appears, read: isolated compounds, mean ± SD, n = 3, read-out: IC50 α-glucosidase.

With `O=c1c(O[C@@H]2O[C@H](CO)[C@@H](O)[C@H](O)[C@H]2O)c(-c2ccc(O)c(O)c2)oc2cc(O)cc(O)c12` [Compound 2, quercetin-3-O-β-D-glucopyranoside], the midpoint of the response in experiment [1], the EC50, lay at 7.89 ± 0.5 µM. For the same compound, the IC50 in experiment [2] (setting [4]) stood at 165 ± 11.6 µM.
On to `O=c1c(O)c(-c2ccc(O)c(O)c2)oc2cc(O[C@@H]3O[C@H](CO)[C@@H](O)[C@H](O)[C@H]3O)cc(O)c12` [Compound 5, quercetin 7-O-β-D-glucopyranoside], for which the values for the half-maximal effective concentration (EC50) in experiment [3] and in experiment [1] were 24.6 ± 1.67 µM and 9.8 ± 0.53 µM, respectively. This compound also had an IC50 in experiment [2] of 370 ± 31.2 µM.
As for `O=c1c(O)c(-c2ccc(O)c(O)c2)oc2cc(O)cc(O)c12` [Compound 1, quercetin], the EC50 came out at 27.9 ± 0.59 µM in experiment [3] and 11.9 ± 0.72 µM in experiment [1].
Regarding `C[C@@H]1O[C@@H](OC[C@H]2O[C@@H](Oc3c(-c4ccc(O)cc4)oc4cc(O)cc(O)c4c3=O)[C@H](O)[C@@H](O)[C@@H]2O)[C@H](O)[C@H](O)[C@H]1O` [Compound 8, kaempferol 3-O-β-D-rutinoside], the EC50 in experiment [3] worked out at 196 ± 7.98 µM; in experiment [1], 152 ± 5.9 µM. The same compound came in with an IC50 in experiment [2] of 178.3 ± 0.35 µM.
In the case of `CC(=O)OC[C@H]1O[C@@H](Oc2c(-c3ccc(O)c(O)c3)oc3cc(O)cc(O)c3c2=O)[C@H](O)[C@@H](O)[C@@H]1O` [Compound 3, quercetin 3-O-(6′′-O-acetyl)-β-D-glucopyranoside], the EC50 is 45.1 ± 1.66 µM in experiment [3] and 11.8 ± 1.04 µM in experiment [1]. The IC50 in experiment [2] (setting [4]) is 310 ± 12.7 µM.
Regarding `O=c1c(O[C@@H]2O[C@H](CO)[C@@H](O)[C@H](O)[C@H]2O)c(-c2ccc(O)cc2)oc2cc(O)cc(O)c12` [Compound 7, kaempferol 3-O-β-D-glucopyranoside], the EC50 came out at 122 ± 5.49 µM in experiment [3] and 301 ± 13.8 µM in experiment [1].
With `CC(C)=CCc1c(O)ccc(C(=O)/C=C/c2ccc(O)cc2O)c1O` [Compound 13, 2,4,2′,4′,-tetrahydroxy-3′-(3-methyl-2-butenyl)-chalcone], the EC50 in experiment [3] is 191 ± 15 µM; in experiment [1] it was greater than 500 µM. The IC50 in experiment [2] (setting [4]) was determined as 50 ± 3.18 µM.
The corresponding values for `O=C1C[C@@H](c2ccc(O)c(O[C@@H]3O[C@H](CO)[C@@H](O)[C@H](O)[C@H]3O)c2)Oc2cc(O)cc(O)c21` [Compound 10, 5,7,4′-trihydroxy-flavanone-3′-O-β-D-glucopyranoside] are 194 ± 8.12 µM, 222 ± 13.8 µM and 728 ± 67.7 µM.
Take `O=C1c2c(O)cc(O[C@@H]3O[C@H](CO)[C@@H](O)[C@H](O)[C@H]3O)cc2O[C@H](c2ccc(O)cc2)[C@H]1O` [Compound 11, dihydrokaempferol 7-O-β-D-glucopyranoside]: the EC50 in experiment [3] stood at 58.3 ± 2.39 µM; in experiment [1] it was 6.46 ± 0.39 µM. The IC50 in experiment [2] (setting [4]) was determined as 933 ± 98.8 µM.
Regarding `O=C(O)Cc1c(O)cc(O)cc1OC(=O)c1ccc(O)c(O)c1` [Compound 15, 2-O-(3,4-dihydroxybenzoyl)-2,4,6-trihydroxyphenylacetic acid], the EC50 in experiment [3] is 15.2 ± 0.7 µM; in experiment [1] it was 7.87 ± 0.73 µM. The IC50 in experiment [2] worked out at 116 ± 6.75 µM.
As to `C[C@@H]1O[C@@H](OC[C@H]2O[C@@H](Oc3c(-c4ccc(O)c(O)c4)oc4cc(O)cc(O)c4c3=O)[C@H](O)[C@@H](O)[C@@H]2O)[C@H](O)[C@H](O)[C@H]1O` [Compound 4, quercetin 3-O-β-D-rutinoside], the figures for the EC50 in experiment [3] and in experiment [1] were 30.6 ± 0.99 µM and 9.76 ± 0.61 µM, respectively. Further, in experiment [2] (setting [4]), the IC50 amounted to 166 ± 11.7 µM.
For the compound `O=c1c(O[C@@H]2O[C@H](CO)[C@@H](O)[C@H](O)[C@H]2O)c(-c2ccc(O)c(O)c2)oc2cc(O[C@@H]3O[C@H](CO)[C@@H](O)[C@H](O)[C@H]3O)cc(O)c12` [Compound 6, quercetin 3,7-di-O-β-D-glucopyranoside], the figures for the EC50 in experiment [3] and in experiment [1] were 50.7 ± 6.7 µM and 9.18 ± 0.97 µM, respectively. Further, in experiment [2] (setting [4]), the IC50 turned out to be 600 ± 45.9 µM.
Consider `CCOC(=O)c1ccc(O)c(O)c1` [Compound 21, protocatechuic acid ethyl ester], for which the EC50 in experiment [3] came out at 606 ± 25.8 µM; in experiment [1], 9.04 ± 0.21 µM.
With `O=C1C[C@@H](c2ccc(O[C@@H]3O[C@H](CO)[C@@H](O)[C@H](O)[C@H]3O)c(O)c2)Oc2cc(O)cc(O)c21` [Compound 9, 5,7,3′-trihydroxy-flavanone-4′-O-β-D-glucopyranoside], the EC50 in experiment [3] was determined as 90.7 ± 8.28 µM; in experiment [1], 79.4 ± 4.74 µM. This compound also returned an IC50 in experiment [2] of 409 ± 38.7 µM.
Regarding `OCCc1ccc(O)cc1` [Compound 24, 2-(4-hydroxyphenyl)ethanol], the EC50 was 417 ± 23.9 µM in experiment [3] and greater than 500 µM in experiment [1].
Regarding `C=C(C)C1Cc2c(ccc(C(=O)/C=C/c3ccc(O)cc3)c2O)O1` (stereo not drawn) [Compound 14], the EC50 was 175 ± 9.72 µM in experiment [3] and greater than 500 µM in experiment [1]. The 50% inhibitory concentration (IC50) in experiment [2] was found to be 225 ± 4.79 µM.
Regarding `COC(=O)c1ccc(O)c(O)c1` [Compound 20, protocatechuic acid methyl ester], the EC50 turned out to be 214 ± 16.9 µM in experiment [3] and 10.7 ± 0.34 µM in experiment [1].
Consider `O=C(O)c1ccc(O)c(O)c1` [Compound 18, protocatechuic acid], for which the figures for the EC50 in experiment [3] and in experiment [1] were 101 ± 8.27 µM and 11.9 ± 0.69 µM, respectively.
Regarding `O=C1O[C@H]([C@@H](O)CO)C(O)=C1O` [Ascorbic acid, reference compound], the EC50 in experiment [3] is greater than 500 µM; in experiment [1], 33.5 ± 1.2 µM.
Take `CC(C)=CCc1c(O)ccc(C(=O)/C=C/c2ccc(O)cc2)c1O` [Compound 12, isobavachalcone]: the EC50 in experiment [3] is 150 ± 9.1 µM; in experiment [1] it was greater than 500 µM. The IC50 in experiment [2] (setting [4]) came out at 67.3 ± 5.51 µM.
In the case of `Oc1ccccc1O` [Compound 25, pyrocatechol], the EC50 in experiment [3] came out at 45.8 ± 2.97 µM; in experiment [1], 6.74 ± 0.28 µM.
Regarding `COC(=O)Cc1c(O)cc(O)cc1OC(=O)c1ccc(O)c(O)c1` [Compound 16, 2-O-(3,4-dihydroxybenzoyl)-2,4,6-trihydroxyphenylmethylacetate], the EC50 was 37.5 ± 2.62 µM in experiment [3] and 10.8 ± 0.94 µM in experiment [1]. This compound also returned an IC50 in experiment [2] of 31.7 ± 3.38 µM.
